What was measured:
AsPC-1 cells = assay: AsPC-1 Cell Growth Inhibition Test (MTT Assay); format: cell-based; conditions: Homo sapiens, ASPC1, 72 h incubation
Outline: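 Human pancreatic cancer AsPC-1 cells seeded at 8000 cells/well, incubated overnight, then exposed to compound for 72 h at 37 °C, 5% CO2. Viability read by MTT (0.5 mg/ml, 3 h), formazan dissolved in DMSO, OD at 490 nm. Inhibition ratio = (PC−n)/(PC−NC)×100%; IC50 = concentration giving 50% inhibition, curve-fitted.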

LoVo cells = assay: LoVo Cell Growth Inhibition Test (MTT Assay); format: cell-based; conditions: Homo sapiens, 72 h incubation
Outline: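 Human LoVo intestinal cancer cells, 3000-4000 per well, were treated with compound for 72 h at 37° C, 5% CO2. Growth was measured by MTT (0.5 mg/ml, 4 h), DMSO-solubilised, OD 490 nm; IC50 is the concentration giving 50% inhibition.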

A549 cells = assay: A549 Cell Growth Inhibition Test (MTT Assay); format: cell-based; conditions: Homo sapiens, 72 h incubation
Outline: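 Human lung cancer A549 cells, seeded at 2500 cells per well, were exposed to compound for 72 h at 37° C., 5% CO2. Viability by MTT (0.5 mg/ml, 3 h), DMSO-dissolved, OD at 490 nm; IC50 fitted from inhibition ratio relative to controls.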

NCI-H460 cells = assay: NCI-H460 Cell Growth Inhibition Test (MTT Assay); format: cell-based; conditions: Homo sapiens, 72 h incubation
Outline: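 Cells seeded at 2500 per well, left overnight, then exposed to compound for 72 h at 37 °C, 5% CO2. Viability by MTT (0.5 mg/ml, 3 h), DMSO-dissolved, OD 490 nm; inhibition ratio = (PC−n)/(PC−NC)×100%, IC50 from curve fit.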

BT-474 cells = assay: BT-474 Cell Growth Inhibition Test (SRB Assay); format: cell-based, human; conditions: Homo sapiens, 70 h incubation; for inhibition at 1 µM: BT-474, 70 h, compound 1 μM, read-out: Growth Inhibition Ratio (%)
Outline: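 Human breast tumour BT-474 cells (1×10^5/ml seeding, overnight) exposed to compound 70 h at 37 °C, 5% CO2; TCA-fixed, SRB-stained, dye dissolved in 10 mM Tris and OD read at 570 nm. Inhibition ratio = (PC−n)/(PC−NC)×100%; IC50 is the concentration giving 50% inhibition, from fitted curves.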

Fadu cells = assay: Fadu Cell Growth Inhibition Test (MTT Assay); format: cell-based; conditions: Homo sapiens, 72 h incubation
Outline: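 Fadu head and neck cancer cells in EMEM + 10% FBS, 6000 cells/well, dosed next day and incubated 72 h at 37 °C, 5% CO2. MTT 0.5 mg/ml for 3 h, DMSO solubilization, OD at 490 nm; inhibition ratio from positive and negative controls, IC50 from fitted curve.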

IC50 (AsPC-1 cells) | IC50 (LoVo cells) | IC50 (A549 cells) | IC50 (NCI-H460 cells) | IC50 (BT-474 cells) | SMILES | IC50 (Fadu cells) | inhibition at 1 µM (BT-474 cells)
1.2 µM | 2 µM | 2 µM | 0.97 µM | 0.008 µM | CN(C)C/C=C/C(=O)Nc1cc2c(Nc3ccc(OCc4ccccc4)c(Cl)c3)c(C#N)cnc2cc1OC1CCOC1 (stereo not shown) [Example 12, (E)-N-(4-(4-(BENZYLOXY)-3-CHLOROPHENYLAMINO)-3-CYANO-7-(TETRAHYDROFURAN-3-YL-OXY)QUINOLIN-6-YL)-4-(DIMETHYLAMINO)-BUT-2-ENAMIDE] | 0.202 µM | 
0.922 µM | 2 µM | 1.1 µM | 1.8 µM | 0.011 µM | CN(C)C/C=C/C(=O)Nc1cc2c(Nc3ccc(OCc4ccccc4C#N)c(Cl)c3)c(C#N)cnc2cc1OC1CCOC1 (stereo not shown) [Example 13, (E)-N-(4-(4-(2-CYANOBENZYLOXY)-3-CHLOROPHENYLAMINO)-3-CYANO-7-(TETRAHYDROFURAN-3-YL-OXY)QUINOLIN-6-YL)-4-(DIMETHYLAMINO)-BUT-2-ENAMIDE] | 0.3 µM | 75%
1.1 µM | 2.2 µM | 3.9 µM | 1.4 µM | 0.0081 µM | CN(C)C/C=C/C(=O)Nc1cc2c(Nc3ccc(OCc4cccc(C#N)c4)c(Cl)c3)c(C#N)cnc2cc1OC1CCOC1 (stereo not shown) [Example 15, (E)-N-(4-(4-(3-CYANOBENZYLOXY)-3-CHLOROPHENYLAMINO)-3-CYANO-7-(TETRAHYDROFURAN-3-YL-OXY)QUINOLIN-6-YL)-4-(DIMETHYLAMINO)-BUT-2-ENAMIDE] | 0.26 µM | 71%
1 µM | 2.1 µM | 1.5 µM | 2.2 µM | 0.003 µM | CN(C)C/C=C/C(=O)Nc1cc2c(Nc3ccc(OCc4ccccn4)c(Cl)c3)c(C#N)cnc2cc1O[C@H]1CCOC1 [Example 138, (S,E)-N-(4-(3-CHLORO-4-(PYRIDIN-2-YL-METHOXY)PHENYLAMINO)-3-CYANO-7-(TETRAHYDROFURAN-3-YL-OXY)QUINOLIN-6-YL)-4-(DIMETHYLAMINO)-BUT-2-ENAMIDE] | 0.101 µM | 82%
1.5 µM | 8.83 µM | 1.5 µM | 1.04 µM | 0.133 µM | CN(C)C/C=C/C(=O)Nc1cc2c(Nc3ccc(F)c(Cl)c3)c(C#N)cnc2cc1O[C@H]1CCOC1 [Example 142, (S,E)-N-(4-(3-CHLORO-4-FLUOROPHENYLAMINO)-3-CYANO-7-(TETRAHYDROFURAN-3-YL-OXY)QUINOLIN-6-YL)-4-(DIMETHYLAMINO)-BUT-2-ENAMIDE] | 0.115 µM | 89%
